Laboratory results published in the NIST ThermoML archive (doi:10.1016/j.fluid.2015.02.014).
Numbers after ± are expanded uncertainties.

Details: Liquid, Closed cell (Static) method

SMILES	vapor or sublimation pressure (283.15 K) [kPa]	vapor or sublimation pressure (293.15 K) [kPa]	vapor or sublimation pressure (303.15 K) [kPa]	vapor or sublimation pressure (313.15 K) [kPa]	vapor or sublimation pressure (323.15 K) [kPa]
C=C(F)C(F)(F)F [2,3,3,3-tetrafluoro-1-propene]	437.9 ± 1.2	591.5 ± 1.3	782.9 ± 1.5	1018.2 ± 1.8	1302.4 ± 2.1
CCF [fluoroethane]	601.2 ± 1.3	805.6 ± 1.5	1058.8 ± 1.8	1365.8 ± 2.2	1735.2 ± 2.7
